Reference: ChEMBL document CHEMBL4261650, “Identification of Cyanamide-Based Janus Kinase 3 (JAK3) Covalent Inhibitors” (J Med Chem, 2018)
Blank lines part the entries; values can stand above or below the compound they belong to.

Tests used:
[1] = Apparent permeability across apical to basolateral side in RRCK cells after […] by HPLC analysis; assay type: ADME, cell-based, Canis lupus familiaris, MDCKII-LE; conditions: dog, MDCK
[2] = GSH reactivity in phosphate buffer assessed as half life at 20 uM after 1 hr in presence of L-glutathione by LC-MS/MS analysis; assay type: physicochemical; conditions: phosphate buffer with L-glutathione
[3] = Half life in human whole blood; assay type: ADME, tissue-based
[4] = Half life in rat whole blood; assay type: ADME, tissue-based
[5] = Covalent reactivity with N-alpha-acetyl-L-lysine assessed as half life; assay type: physicochemical; conditions: N-alpha-acetyl-L-lysine solution
[6] = Drug level in human liver microsomes treated with 10 uM N-(6-(7H-Pyrrolo[2,3-d]pyrimidin-4-yl)-2,3-dihydro-1H-inden-1-yl)cyanamide (11), (S)-N-(6-(7H-Pyrrolo[2,3-d]pyrimidin-4-yl)-2,3-dihydro-1H-inden-1-yl)cyanamide assessed as compound formation at 10 uM in presence of GSH and NADPH after 15 to 45 mins by LC-MS/MS analysis; assay type: ADME, microsome
[7] = Apparent intrinsic clearance in human liver microsomes; assay type: ADME, microsome; conditions: read-out: CLH(app)
[8] = Half life in rat at 1 mg/kg, iv administered as single dose by LC-MS/MS analysis; assay type: ADME, organism-based; conditions: in vivo
[9] = Apparent intrinsic clearance in rat liver microsomes; assay type: ADME, microsome; conditions: read-out: CLH(app)
[10] = Drug metabolism in human liver microsomes assessed as 2-((R)-3-(N-((S)-6-(7H-pyrrolo[2,3-d]pyrimidin-4-yl)-2,3-dihydro-1H-inden-1-yl)carbamimidoylthio)-2-aminopropanamido)acetic acid metabolite formation at 10 uM in presence of GSH and NADPH after 15 to 45 mins by LC-MS/MS analysis; assay type: ADME, microsome
[11] = Oral bioavailability in rat at 3 mg/kg administered as single dose by LC-MS/MS analysis; assay type: ADME, organism-based; conditions: in vivo
[12] = AUC in rat at 1 mg/kg, iv co-administered with CYP450 inhibitor ABT by LC-MS/MS analysis; assay type: ADME, organism-based; conditions: in vivo
[13] = Drug metabolism in human liver microsomes assessed as (S)-4-amino-6-(3-cyanamido-2,3-dihydro-1H-inden-5-yl)pyrimidine-5-carboxylic acid metabolite formation at 10 uM in presence of GSH and NADPH after 15 to 45 mins by LC-MS/MS analysis; assay type: ADME, microsome
[14] = Clearance in rat at 1 mg/kg, iv co-administered with CYP450 inhibitor ABT by LC-MS/MS analysis; assay type: ADME, organism-based; conditions: in vivo
[15] = Clearance in rat at 1 mg/kg, iv administered as single dose by LC-MS/MS analysis; assay type: ADME, organism-based; conditions: in vivo
[16] = Volume of distribution at steady state in rat at 1 mg/kg, iv administered as single dose by LC-MS/MS analysis; assay type: ADME, organism-based; conditions: in vivo, read-out: Vdss
[17] = Volume of distribution at steady state in rat at 1 mg/kg, iv co-administered with CYP450 inhibitor ABT by LC-MS/MS analysis; assay type: ADME, organism-based; conditions: in vivo, read-out: Vdss
[18] = AUC in rat at 1 mg/kg, iv administered as single dose by LC-MS/MS analysis; assay type: ADME, organism-based; conditions: in vivo
[19] = Drug metabolism in human liver microsomes assessed as (S)-1-(6-(7H-pyrrolo[2,3-d]pyrimidin-4-yl)-2,3-dihydro-1H-inden-1-yl)urea metabolite formation at 10 uM in presence of GSH and NADPH after 15 to 45 mins by LC-MS/MS analysis; assay type: ADME, microsome
[20] = Half life in rat at 1 mg/kg, iv co-administered with CYP450 inhibitor ABT by LC-MS/MS analysis; assay type: ADME, organism-based; conditions: in vivo
[21] = AUC in rat at 3 mg/kg, po administered as single dose by LC-MS/MS analysis; assay type: ADME, organism-based; conditions: in vivo

SMILES: N#CN[C@H]1C[C@@H](NS(=O)(=O)c2cccc(C#N)c2)c2ccc(-c3ncnc4[nH]ccc34)cc21
- Papp A→B at […] [1]: 6 ×10⁻⁶ cm/s
- half-life at 20 µM [2]: 0.4 h

SMILES: Cn1nccc1S(=O)(=O)N[C@@H]1C[C@H](NC#N)c2cc(-c3ncnc4[nH]ccc34)ccc21
- half-life at 20 µM [2]: 0.367 h

SMILES: COc1ccc(S(=O)(=O)N[C@@H]2C[C@H](NC#N)c3cc(-c4ncnc5[nH]ccc45)ccc32)cc1
- half-life at 20 µM [2]: 0.583 h

SMILES: N#CN[C@H]1CCc2ccc(-c3ncnc4[nH]cc(-c5ccccc5)c34)cc21
- Papp A→B at […] [1]: 2 ×10⁻⁶ cm/s
- half-life at 20 µM [2]: 1.57 h
- half-life [3]: 1.02 h
- half-life [4]: 1.02 h

SMILES: C1CNC1 [AZETIDINE]
- half-life [5]: 2.59 h

SMILES: C=CC(=O)N1CCOc2ccc(-c3ncnc4[nH]cc(CCOC)c34)cc21
- half-life at 20 µM [2]: 0.05 h
- half-life [3]: 0.0833 h
- half-life [4]: 0.0667 h

SMILES: NC(=O)N[C@H]1CCc2ccc(-c3ncnc4[nH]ccc34)cc21
- Drug metabolism [6]: Metabolite_Detected

SMILES: CN(C#N)C1CCc2ccc(-c3ncnc4[nH]ccc34)cc21 (stereo unspecified)
- half-life at 20 µM [2]: > 3.17 h

SMILES: COCCc1c[nH]c2ncnc(-c3ccc4c(c3)N(C#N)CCO4)c12
- half-life at 20 µM [2]: > 3.17 h

SMILES: COCCc1c[nH]c2ncnc(-c3ccc4c(c3)C(NC#N)CC4)c12 (stereo unspecified)
- half-life at 20 µM [2]: 1.23 h

SMILES: N=C(N[C@H]1CCc2ccc(-c3ncnc4[nH]ccc34)cc21)SC[C@H](N)C(=O)NCC(=O)O
- Drug metabolism [6]: Metabolite_Detected

SMILES: N#CN[C@H]1CCc2ccc(-c3ncnc4[nH]cc(-c5cccc(CO)c5)c34)cc21
- Papp A→B at […] [1]: 4 ×10⁻⁶ cm/s
- half-life at 20 µM [2]: 1.15 h
- half-life [3]: 0.8 h
- half-life [4]: 0.983 h

SMILES: N=C(N[C@H]1CCc2ccc(-c3ncnc4[nH]ccc34)cc21)SC[C@H](NC(=O)CC[C@H](N)C(=O)O)C(=O)NCC(=O)O
- Drug metabolism [6]: Metabolite_Detected

SMILES: COCCc1c[nH]c2ncnc(-c3ccc4c(c3)C(NC#N)CCO4)c12 (stereo unspecified)
- half-life at 20 µM [2]: 1.17 h

SMILES: C1CCNCC1 [PIPERIDINE]
- half-life [5]: 11.1 h

SMILES: N#CN[C@H]1CCc2ccc(-c3ncnc(N)c3C(=O)O)cc21
- Drug metabolism [6]: Metabolite_Detected

SMILES: CS(=O)(=O)N[C@@H]1C[C@H](NC#N)c2cc(-c3ncnc4[nH]ccc34)ccc21
- Papp A→B at […] [1]: < 1 ×10⁻⁶ cm/s
- half-life at 20 µM [2]: 0.383 h
- half-life [3]: 3.47 h
- half-life [4]: 0.517 h

SMILES: COCCS(=O)(=O)N[C@@H]1C[C@H](NC#N)c2cc(-c3ncnc4[nH]ccc34)ccc21
- half-life at 20 µM [2]: 1.17 h

SMILES: C1CCNC1 [PYRROLIDINE]
- half-life [5]: 7.7 h

SMILES: N#CN[C@H]1C[C@@H](NS(=O)(=O)c2cccc(F)c2)c2ccc(-c3ncnc4[nH]ccc34)cc21
- Papp A→B at […] [1]: 10 ×10⁻⁶ cm/s
- half-life at 20 µM [2]: 1.33 h

SMILES: C=CC(=O)Nc1cccc(-c2ncnc3[nH]cc(CCOC)c23)c1
- Papp A→B at […] [1]: 10 ×10⁻⁶ cm/s
- clearance [15]: 455 mL/min/kg
- half-life at 20 µM [2]: 0.933 h
- half-life [3]: 2.47 h
- half-life [4]: 0.483 h

SMILES: COCCc1c[nH]c2ncnc(-c3ccc4c(c3)N(C#N)CC(F)(F)O4)c12
- Papp A→B at […] [1]: 14 ×10⁻⁶ cm/s
- half-life at 20 µM [2]: > 2 h

Second part, the compound after the results:

- half-life at 20 µM [2]: 1.12 h
SMILES: N#CNC1CCc2ccc(-c3ncnc4[nH]ccc34)cc21 (stereo unspecified)

- half-life at 20 µM [2]: 0.667 h
SMILES: N#CN[C@H]1C[C@H](O)c2ccc(-c3ncnc4[nH]ccc34)cc21

- Papp A→B at […] [1]: 19 ×10⁻⁶ cm/s
- half-life at 20 µM [2]: > 2 h
- half-life [3]: > 6 h
- half-life [4]: > 6 h
SMILES: C[C@]1(NC#N)CCc2ccc(-c3ncnc4[nH]ccc34)cc21

- half-life at 20 µM [2]: > 2 h
SMILES: CC1(NC#N)CCc2ccc(-c3ncnc4[nH]ccc34)cc21 (stereo unspecified)

- microsomal CLint [7]: 50 µL/min/mg
- half-life [8]: 0.27 h
- microsomal CLint [9]: 100 µL/min/mg
- Drug metabolism [10]: Metabolite_Detected
- bioavailability [11]: 16%
- AUC [12]: 488 ng·h/mL
- Drug metabolism [13]: Metabolite_Detected
- clearance [14]: 34 mL/min/kg
- Papp A→B at […] [1]: 11 ×10⁻⁶ cm/s
- clearance [15]: 36 mL/min/kg
- half-life at 20 µM [2]: 1.15 h
- Vd [16]: 0.35 L/kg
- Vd [17]: 0.63 L/kg
- half-life [3]: > 6 h
- AUC [18]: 466 ng·h/mL
- half-life [4]: 2.5 h
- Drug metabolism [19]: Metabolite_Detected
- half-life [20]: 0.75 h
- AUC [21]: 240 ng·h/mL
SMILES: N#CN[C@H]1CCc2ccc(-c3ncnc4[nH]ccc34)cc21

- half-life at 20 µM [2]: 0.783 h
SMILES: N#CN[C@@H]1c2cc(-c3ncnc4[nH]ccc34)ccc2C[C@H]1O

- half-life at 20 µM [2]: 1.35 h
SMILES: N#CN[C@@H]1CCc2ccc(-c3ncnc4[nH]ccc34)cc21

- half-life at 20 µM [2]: > 2 h
SMILES: C[C@@]1(NC#N)CCc2ccc(-c3ncnc4[nH]ccc34)cc21

- half-life at 20 µM [2]: 0.6 h
SMILES: N#CNC1CCOc2ccc(-c3ncnc4[nH]ccc34)cc21 (stereo unspecified)

- half-life at 20 µM [2]: 0.683 h
SMILES: N#CN[C@H]1CCOc2ccc(-c3ncnc4[nH]ccc34)cc21

- half-life at 20 µM [2]: 1.58 h
SMILES: C[C@@H]1Cc2ccc(-c3ncnc4[nH]ccc34)cc2[C@@H]1NC#N

- Papp A→B at […] [1]: 2 ×10⁻⁶ cm/s
- half-life at 20 µM [2]: 0.467 h
- half-life [3]: 5.65 h
- half-life [4]: 0.333 h
SMILES: N#CN[C@H]1C[C@@H](O)c2ccc(-c3ncnc4[nH]ccc34)cc21
